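The compound was tested at five concentrations on cells cultured in 96-well plates, with a 48-hour exposure period. Here, GI50 denotes the concentration required for 50% inhibition of growth. TGI marks complete inhibition of growth.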
What was measured:
Experiment in all cases: inhibition of tumour cell growth, NCI panel, 48 h
BT-549 breast = system: BT-549 breast
NCI-H226 lung = system: NCI-H226 lung
OVCAR-5 ovarian = system: OVCAR-5 ovarian
SNB-75 CNS = system: SNB-75 CNS
PC-3 prostate = system: PC-3 prostate
MOLT-4 leukemia = system: MOLT-4 leukemia
CCRF-CEM leukemia = system: CCRF-CEM leukemia
HCC-2998 colon = system: HCC-2998 colon
RPMI-8226 leukemia = system: RPMI-8226 leukemia
EKVX NSCLC = system: EKVX NSCLC

## COc1cc(S(=O)(=O)Nc2nc(-c3ccc(N4C(=O)/C(=C/c5ccccc5[N+](=O)[O-])N=C4c4ccccc4)cc3)cs2)ccc1Cl
BT-549 breast
  TGI: 74.7 µM
NCI-H226 lung
  TGI: > 100 µM
OVCAR-5 ovarian
  TGI: > 100 µM
SNB-75 CNS
  TGI: > 100 µM
PC-3 prostate
  TGI: > 100 µM
MOLT-4 leukemia
  TGI: > 100 µM
CCRF-CEM leukemia
  TGI: > 100 µM

## Cl/C(=C\C=Nc1ccc(I)cc1)c1ccc2ccccc2c1
HCC-2998 colon
  TGI: 17.8 µM
BT-549 breast
  TGI: 47 µM
NCI-H226 lung
  TGI: > 59.7 µM
OVCAR-5 ovarian
  TGI: > 64.6 µM
SNB-75 CNS
  TGI: > 79.9 µM
RPMI-8226 leukemia
  TGI: 56.5 µM
PC-3 prostate
  TGI: > 100 µM
MOLT-4 leukemia
  TGI: 13.6 µM
EKVX NSCLC
  TGI: > 100 µM
CCRF-CEM leukemia
  TGI: > 25.1 µM

## COC(=O)Nc1nc2ccc(NC(=O)c3cccs3)cc2[nH]1
BT-549 breast
  TGI: > 100 µM
NCI-H226 lung
  TGI: > 100 µM
OVCAR-5 ovarian
  TGI: > 100 µM
SNB-75 CNS
  TGI: 65 µM
RPMI-8226 leukemia
  TGI: 46.4 µM
PC-3 prostate
  TGI: > 100 µM
MOLT-4 leukemia
  TGI: > 100 µM
EKVX NSCLC
  TGI: > 100 µM
CCRF-CEM leukemia
  TGI: > 100 µM

## CC(C)(C)OC(=O)NC1CCC(C(C)(C)C)CC1 (stereo unspecified)
HCC-2998 colon
  TGI: > 100 µM
NCI-H226 lung
  TGI: > 100 µM
OVCAR-5 ovarian
  TGI: > 100 µM
SNB-75 CNS
  TGI: > 100 µM
RPMI-8226 leukemia
  TGI: > 100 µM
MOLT-4 leukemia
  TGI: 67.2 µM
EKVX NSCLC
  TGI: > 100 µM
CCRF-CEM leukemia
  TGI: > 100 µM

## C[C@]12CC[C@H](O)CC1=CC[C@@H]1[C@@H]2CC[C@]2(C)C(=N/O)/C(=C/c3ccc([N+](=O)[O-])cc3)C[C@@H]12
HCC-2998 colon
  TGI: 23 µM
BT-549 breast
  TGI: 26.3 µM
NCI-H226 lung
  TGI: 6.59 µM
OVCAR-5 ovarian
  TGI: 21.5 µM
SNB-75 CNS
  TGI: 18 µM
RPMI-8226 leukemia
  TGI: 50.6 µM
PC-3 prostate
  TGI: 14.3 µM
MOLT-4 leukemia
  TGI: 20.5 µM
EKVX NSCLC
  TGI: 7.37 µM
CCRF-CEM leukemia
  TGI: > 100 µM

## CCCC(=O)O.CCCC(=O)O.CCCC(=O)O.CCCC(=O)O.[Rh].[Rh]
BT-549 breast
  GI50: 0.0314 µM
  TGI: 0.101 µM
SNB-75 CNS
  GI50: 0.423 µM
  TGI: 2.62 µM
RPMI-8226 leukemia
  GI50: 0.0243 µM
  TGI: 0.112 µM
PC-3 prostate
  GI50: 0.0618 µM
  TGI: 0.47 µM
MOLT-4 leukemia
  GI50: 0.0315 µM
  TGI: 0.141 µM
EKVX NSCLC
  GI50: 0.168 µM
  TGI: 0.943 µM
CCRF-CEM leukemia
  GI50: 0.0277 µM
  TGI: 1.08 µM

## CC(=O)NNC(=O)C1CCCCN1 (stereo unspecified)
BT-549 breast
  TGI: > 100 µM
NCI-H226 lung
  TGI: > 100 µM
OVCAR-5 ovarian
  TGI: > 100 µM
RPMI-8226 leukemia
  TGI: > 100 µM
PC-3 prostate
  TGI: > 100 µM
MOLT-4 leukemia
  TGI: > 100 µM
EKVX NSCLC
  TGI: > 100 µM
CCRF-CEM leukemia
  TGI: > 100 µM

## C=CCSSCC=C
HCC-2998 colon
  TGI: > 100 µM
BT-549 breast
  TGI: > 81.5 µM
NCI-H226 lung
  TGI: > 92.6 µM
OVCAR-5 ovarian
  TGI: > 100 µM
SNB-75 CNS
  TGI: > 100 µM
RPMI-8226 leukemia
  TGI: > 80.4 µM
PC-3 prostate
  TGI: > 100 µM
MOLT-4 leukemia
  TGI: > 100 µM
EKVX NSCLC
  TGI: > 100 µM
CCRF-CEM leukemia
  TGI: > 100 µM

## C=C1C(=O)OC2CC1CCC1(C)OC1CCC(C)=CCCC2(C)O (stereo unspecified)
HCC-2998 colon
  TGI: 15.2 µM
NCI-H226 lung
  TGI: 9.17 µM
OVCAR-5 ovarian
  TGI: 19.1 µM
SNB-75 CNS
  TGI: 19.5 µM
RPMI-8226 leukemia
  TGI: 7.18 µM
MOLT-4 leukemia
  TGI: 9.2 µM
EKVX NSCLC
  TGI: 13.9 µM
CCRF-CEM leukemia
  TGI: 4.56 µM

## O=C1OCc2cc3cc4c(cc3c(-c3ccc5c(c3)OCO5)c21)OCO4 (tested in a mixture with another compound)
HCC-2998 colon
  TGI: > 100 µM
BT-549 breast
  TGI: > 100 µM
NCI-H226 lung
  TGI: 29.3 µM
OVCAR-5 ovarian
  TGI: 96.8 µM
RPMI-8226 leukemia
  TGI: > 100 µM
PC-3 prostate
  TGI: > 100 µM
MOLT-4 leukemia
  TGI: 72.5 µM
CCRF-CEM leukemia
  TGI: > 100 µM

## CN1CC(CNC(=O)OCc2ccccc2)CC2c3cccc4c3c(cn4C)CC21 (stereo unspecified)
HCC-2998 colon
  GI50: 1.67 µM
  TGI: 3.19 µM
BT-549 breast
  GI50: 2.07 µM
  TGI: 4.62 µM
NCI-H226 lung
  GI50: 2.82 µM
  TGI: 9.06 µM
OVCAR-5 ovarian
  GI50: 1.98 µM
  TGI: 4.91 µM
SNB-75 CNS
  GI50: 1.9 µM
  TGI: 4.68 µM
RPMI-8226 leukemia
  GI50: 2.14 µM
  TGI: 5.36 µM
PC-3 prostate
  GI50: 2.07 µM
  TGI: 6.28 µM
MOLT-4 leukemia
  GI50: 2.36 µM
  TGI: 5.25 µM
EKVX NSCLC
  GI50: 5.2 µM
  TGI: 21.3 µM
CCRF-CEM leukemia
  GI50: 2.48 µM
  TGI: 7.81 µM

## Br/C(=N\Nc1nn[nH]n1)c1ccncc1
BT-549 breast
  TGI: > 100 µM
NCI-H226 lung
  TGI: > 100 µM
OVCAR-5 ovarian
  TGI: > 100 µM
SNB-75 CNS
  TGI: > 100 µM
RPMI-8226 leukemia
  TGI: > 100 µM
PC-3 prostate
  TGI: > 100 µM
MOLT-4 leukemia
  TGI: > 100 µM
EKVX NSCLC
  TGI: > 100 µM
CCRF-CEM leukemia
  TGI: > 100 µM

## O=C(Nc1ccc(Cl)c(Cl)c1)N1N=C2c3ccccc3CCC2C1c1ccc(Cl)cc1 (stereo unspecified)
HCC-2998 colon
  TGI: > 100 µM
BT-549 breast
  TGI: > 100 µM
NCI-H226 lung
  TGI: > 100 µM
OVCAR-5 ovarian
  TGI: > 100 µM
SNB-75 CNS
  TGI: > 100 µM
RPMI-8226 leukemia
  TGI: > 100 µM
PC-3 prostate
  TGI: > 100 µM
MOLT-4 leukemia
  TGI: > 100 µM
EKVX NSCLC
  TGI: > 100 µM
CCRF-CEM leukemia
  TGI: > 100 µM

## O=C(COc1ccc(Cl)c(Cl)c1)N(Cc1ccccc1)Cc1ccc[n+](Cc2ccc(Cl)cc2S(=O)(=O)F)c1
NCI-H226 lung
  TGI: > 100 µM
OVCAR-5 ovarian
  TGI: > 100 µM
SNB-75 CNS
  TGI: > 100 µM
RPMI-8226 leukemia
  TGI: 28.4 µM
PC-3 prostate
  TGI: > 100 µM
MOLT-4 leukemia
  TGI: 54.8 µM

## O=C(Oc1ccc(Cl)cc1[N+](=O)[O-])c1ccccc1
HCC-2998 colon
  TGI: > 100 µM
NCI-H226 lung
  TGI: > 100 µM
OVCAR-5 ovarian
  TGI: > 100 µM
SNB-75 CNS
  TGI: > 100 µM
RPMI-8226 leukemia
  TGI: > 100 µM
MOLT-4 leukemia
  TGI: > 100 µM
EKVX NSCLC
  TGI: > 100 µM
CCRF-CEM leukemia
  TGI: > 100 µM

## O=C1CCCC2C3CC(CN12)C1CCCCN1C3 (stereo unspecified)
HCC-2998 colon
  TGI: > 100 µM
BT-549 breast
  TGI: > 100 µM
NCI-H226 lung
  TGI: > 100 µM
OVCAR-5 ovarian
  TGI: > 100 µM
RPMI-8226 leukemia
  TGI: > 100 µM
PC-3 prostate
  TGI: > 100 µM
MOLT-4 leukemia
  TGI: > 100 µM
EKVX NSCLC
  TGI: > 100 µM
CCRF-CEM leukemia
  TGI: > 100 µM

## Cc1cc(C)nc(SCCc2cccc[n+]2C)n1
HCC-2998 colon
  TGI: > 100 µM
BT-549 breast
  TGI: > 100 µM
NCI-H226 lung
  TGI: > 100 µM
OVCAR-5 ovarian
  TGI: > 100 µM
SNB-75 CNS
  TGI: > 100 µM
RPMI-8226 leukemia
  TGI: > 100 µM
PC-3 prostate
  TGI: > 100 µM
MOLT-4 leukemia
  TGI: > 100 µM
EKVX NSCLC
  TGI: > 100 µM
CCRF-CEM leukemia
  TGI: > 100 µM

## O=C1C(Cl)C(c2cc3cc(Br)ccc3nc2Cl)N1c1ccc(Cl)cc1 (stereo unspecified)
HCC-2998 colon
  TGI: 8.04 µM
BT-549 breast
  TGI: 11.6 µM
NCI-H226 lung
  TGI: 12.3 µM
OVCAR-5 ovarian
  TGI: > 25 µM
SNB-75 CNS
  TGI: 19.5 µM
RPMI-8226 leukemia
  TGI: 14.1 µM
PC-3 prostate
  TGI: > 25 µM
MOLT-4 leukemia
  TGI: 10.6 µM
EKVX NSCLC
  TGI: 8.13 µM
CCRF-CEM leukemia
  TGI: 11.4 µM

## COc1c(OC/C=C(\C)CCC=C(C)C)ccc2ccc(=O)oc12
HCC-2998 colon
  TGI: > 100 µM
BT-549 breast
  TGI: > 100 µM
OVCAR-5 ovarian
  TGI: > 100 µM
SNB-75 CNS
  TGI: > 100 µM
RPMI-8226 leukemia
  TGI: > 100 µM
PC-3 prostate
  TGI: > 100 µM
MOLT-4 leukemia
  TGI: > 100 µM
EKVX NSCLC
  TGI: > 100 µM
CCRF-CEM leukemia
  TGI: > 100 µM

## CC(C)(C)c1ccc(/C=N/NC(=O)CSCC(=O)N/N=C/c2ccc(C(C)(C)C)cc2)cc1
HCC-2998 colon
  TGI: 4.8 µM
NCI-H226 lung
  TGI: 4.93 µM
OVCAR-5 ovarian
  TGI: 12.5 µM
SNB-75 CNS
  TGI: 20.1 µM
RPMI-8226 leukemia
  TGI: > 100 µM
PC-3 prostate
  TGI: 18.2 µM
MOLT-4 leukemia
  TGI: 5.02 µM
EKVX NSCLC
  TGI: 19.8 µM

## CC[C@]12C=CCN3CC[C@@]4(c5cc(Br)c(OC)cc5N(C)[C@H]4[C@@](O)(C(=O)N[C@@H](Cc4ccc(O)cc4)C(=O)OC)[C@@H]1O)[C@@H]32
HCC-2998 colon
  TGI: 94.6 µM
BT-549 breast
  TGI: 41.4 µM
OVCAR-5 ovarian
  TGI: > 100 µM
RPMI-8226 leukemia
  TGI: 36 µM
PC-3 prostate
  TGI: > 100 µM
MOLT-4 leukemia
  TGI: 62.3 µM
EKVX NSCLC
  TGI: > 100 µM
CCRF-CEM leukemia
  TGI: 44 µM

## COc1ccc(OC)c(CC(C)N)c1 (stereo unspecified)
HCC-2998 colon
  TGI: > 100 µM
NCI-H226 lung
  TGI: > 100 µM
SNB-75 CNS
  TGI: > 100 µM
RPMI-8226 leukemia
  TGI: > 100 µM
MOLT-4 leukemia
  TGI: > 100 µM
EKVX NSCLC
  TGI: > 100 µM
CCRF-CEM leukemia
  TGI: > 100 µM

From PubChem BioAssay (NCI)
